These are literature values, as cited in PubChem BioAssay AID1259409 (Chemical Carcinogenesis Research Information System (CCRIS), 2018).

The test system of the data set is rodent chemically induced tumor inhibition, incidence and multiplicity. In words: CCRIS tumor inhibitor studies.

Where “and” joins values, the source holds several entries; their conditions need not be identical. Equal values may be shown once.

For the compound `NCCCC(N)(C(=O)O)C(F)F` (centres undefined), the “tumour outcome (control, treated, inhibition, significance)” value reads like this: (Carcinogen: DIETHYLNITROSAMINE, 55-18-5, Dose [Inhibitor]: 0, 600 MG/KG BW BY INTRAPERITONEAL INJECTION ON DAYS 13, 14 AND 15 OF AGE THEN 4 G/KG DIET FROM 21 TO 161 DAYS OF AGE (S, Route [Inhibitor]: INTRAPERITONEAL, ORAL, Species: MOUSE, Strain/Sex: C3H/MALE, Target Tissue: Type of Lesion: LIVER: ADENOMA, Dose [Carcinogen]: 4 MG/KG IN TRICAPRYLIN ONCE ON DAY 15 OF AGE, Promoter: NONE USED) 100%, 100%, 0%, not significant; (Carcinogen: DIETHYLNITROSAMINE, 55-18-5, Dose [Inhibitor]: 0, 1600 MG/KG DIET FOR DURATION OF STUDY BEGINNING 1 WK PRIOR TO CARCINOGEN TREATMENT (STUDY DURATION: 25 WK), Route [Inhibitor]: ORAL, Species: HAMSTER, Strain/Sex: SYRIAN/MALE, Target Tissue: Type of Lesion: LUNG: CARCINOMA, Dose [Carcinogen]: 17.8 MG/KG BW 2/WK FOR 20 WK, Promoter: NONE USED) 50%, 41%, 18%, not significant; (Carcinogen: DIETHYLNITROSAMINE, 55-18-5, Dose [Inhibitor]: 0, 1600 MG/KG DIET FOR DURATION OF STUDY BEGINNING 1 WK PRIOR TO CARCINOGEN TREATMENT (STUDY DURATION: 25 WK), Route [Inhibitor]: ORAL, Species: HAMSTER, Strain/Sex: SYRIAN/MALE, Target Tissue: Type of Lesion: TRACHEA: PAPILLOMA, Dose [Carcinogen]: 17.8 MG/KG BW 2/WK FOR 20 WK, Promoter: NONE USED) 95%, 83%, 13%, not significant; (Carcinogen: DIETHYLNITROSAMINE, 55-18-5, Dose [Inhibitor]: 0, 3200 MG/KG DIET FOR DURATION OF STUDY BEGINNING 1 WK PRIOR TO CARCINOGEN TREATMENT (STUDY DURATION: 25 WK), Route [Inhibitor]: ORAL, Species: HAMSTER, Strain/Sex: SYRIAN/MALE, Target Tissue: Type of Lesion: LUNG: CARCINOMA, Dose [Carcinogen]: 17.8 MG/KG BW 2/WK FOR 20 WK, Promoter: NONE USED) 60%, 47%, 22%, not significant; (Carcinogen: DIETHYLNITROSAMINE, 55-18-5, Dose [Inhibitor]: 0, 3200 MG/KG DIET FOR DURATION OF STUDY BEGINNING 1 WK PRIOR TO CARCINOGEN TREATMENT (STUDY DURATION: 25 WK), Route [Inhibitor]: ORAL, Species: HAMSTER, Strain/Sex: SYRIAN/MALE, Target Tissue: Type of Lesion: TRACHEA: PAPILLOMA, Dose [Carcinogen]: 17.8 MG/KG BW 2/WK FOR 20 WK, Promoter: NONE USED) 100%, 95%, 5%, not significant; (Carcinogen: METHYLAZOXYMETHANOL ACETATE, 592-62-1, Dose [Inhibitor]: 0, 0.1% IN DRINKING WATER FOR 25 WK BEGINNING 15 WK POST INITIAL CARCINOGEN DOSE (STUDY DURATION: 40 WK), Route [Inhibitor]: ORAL, Species: RAT, Strain/Sex: F344/MALE, Target Tissue: Type of Lesion: LARGE INTESTINE: ADENOCARCINOMA, Dose [Carcinogen]: 20 MG/KG BW 1/WK FOR 3 WK, Promoter: 1,2-DIMETHYLHYDRAZINE, 540-73-8) 16/26 (62%), 11/28 (39%), 37%, not significant. The “tumour outcome (control, treated, inhibition, significance)” value (Carcinogen: METHYLAZOXYMETHANOL ACETATE, 592-62-1, Dose [Inhibitor]: 0, 0.1% IN DRINKING WATER FOR 25 WK BEGINNING 15 WK POST INITIAL CARCINOGEN DOSE (STUDY DURATION: 40 WK), Route [Inhibitor]: ORAL, Species: RAT, Strain/Sex: F344/MALE, Target Tissue: Type of Lesion: SMALL INTESTINE: ADENOCARCINOMA, Dose [Carcinogen]: 20 MG/KG BW 1/WK FOR 3 WK, Promoter: 1,2-DIMETHYLHYDRAZINE, 540-73-8) is on record as 8/26 (31%), 8/25 (29%), 6%, not significant; the “tumour outcome (control, treated, inhibition, significance)” value (Carcinogen: N-BUTYL-N(4-HYDROXYBUTYL)NITROSAMINE, 3817-11-6, Dose [Inhibitor]: 0, 640 MG/KG DIET FOR 6 MO BEGINNING 1 WK PRIOR TO CARCINOGEN TREATMENT (STUDY DURATION: 6 MO), Route [Inhibitor]: ORAL, Species: MOUSE, Strain/Sex: BDF/MALE, Target Tissue: Type of Lesion: URINARY BLADDER: CARCINOMA, Dose [Carcinogen]: 7.5 MG IN 0.1 ML ETHANOL:WATER (20:80) 1/WK FOR 8 WK, Promoter: NONE USED) was 27/70 (39%), 21/72 (29%), 26%, not calculated; the “tumour outcome (control, treated, inhibition, significance)” value (Carcinogen: N-BUTYL-N-(4-HYDROXYBUTYL)NITROSAMINE, 3817-11-6, Dose [Inhibitor]: 0, 600 MG/KG DIET BEGINNING 1 WK PRIOR TO CARCINOGEN TREATMENT AND CONTINUING FOR DURATION OF STUDY (STUDY DURATION: 180, Route [Inhibitor]: ORAL, Species: MOUSE, Strain/Sex: BDF/MALE, Target Tissue: Type of Lesion: BLADDER: CARCINOMA, Dose [Carcinogen]: 7.5 MG IN 0.1 ML OF ETHANOL:WATER (20:80) 1/WK FOR 8 WK, Promoter: NONE USED) was 25/63 (40%), 17/72 (24%), 40%, p<0.05; the “tumour outcome (control, treated, inhibition, significance)” value (Carcinogen: N-BUTYL-N-(4-HYDROXYBUTYL)NITROSAMINE, 3817-11-6, Dose [Inhibitor]: 0, 1200 MG/KG DIET BEGINNING 1 WK PRIOR TO CARCINOGEN TREATMENT AND CONTINUING FOR DURATION OF STUDY (STUDY DURATION: 18, Route [Inhibitor]: ORAL, Species: MOUSE, Strain/Sex: BDF/MALE, Target Tissue: Type of Lesion: BLADDER: CARCINOMA, Dose [Carcinogen]: 7.5 MG IN 0.1 ML OF ETHANOL:WATER (20:80) 1/WK FOR 8 WK, Promoter: NONE USED) was 28/65 (43%), 14/65 (22%), 49%, p<0.01; the “tumour outcome (control, treated, inhibition, significance)” value (Carcinogen: N-BUTYL-N-(4-HYDROXYBUTYL)NITROSAMINE, 3817-11-6, Dose [Inhibitor]: 0, 1280 MG/KG DIET FOR 6 MO BEGINNING 1 WK PRIOR TO CARCINOGEN TREATMENT (STUDY DURATION: 6 MO), Route [Inhibitor]: ORAL, Species: MOUSE, Strain/Sex: BDF/MALE, Target Tissue: Type of Lesion: URINARY BLADDER: CARCINOMA, Dose [Carcinogen]: 7.5 MG IN 0.1 ML ETHANOL:WATER (20:80) 1/WK FOR 8 WK, Promoter: NONE USED) is reported as 30/73 (41%), 15/73 (21%), 49%, p<0.01; the “tumour outcome (control, treated, inhibition, significance)” value (Carcinogen: N-BUTYL-N-(4-HYDROXYBUTYL)NITROSOAMINE, 3817-11-6, Dose [Inhibitor]: 0.2% IN DRINKING WATER BEGINNING POST CARCINOGEN DOSE AND CONTINUING FOR 40 WK FOLLOWED BY TAP WATER FOR DURATION OF STU, Route [Inhibitor]: ORAL, Species: RAT, Strain/Sex: F344/MALE, Target Tissue: Type of Lesion: URINARY BLADDER: CARCINOMA, Dose [Carcinogen]: 0.05% IN DRINKING WATER FOR 6 WK, Promoter: NONE USED) is 19/19 (100%), 16/18 (89%), 11%, not significant and 24/24 (100%), 23/25 (92%), 8%, not significant. The “tumour outcome (control, treated, inhibition, significance)” value (Carcinogen: N-BUTYL-N-(4-HYDROXYBUTYL)NITROSOAMINE, 3817-11-6, Dose [Inhibitor]: 0.2% IN DRINKING WATER BEGINNING POST CARCINOGEN DOSE AND CONTINUING FOR DURATION OF STUDY (STUDY DURATION: 75 WK), Route [Inhibitor]: ORAL, Species: RAT, Strain/Sex: F344/MALE, Target Tissue: Type of Lesion: URINARY BLADDER: CARCINOMA, Dose [Carcinogen]: 0.05% IN DRINKING WATER FOR 6 WK, Promoter: NONE USED) was 16/25 (64%), 11/24 (46%), 28%, not significant (at 40 wk post carcinogen dose) and 19/19 (100%), 12/19 (63%), 37%, p<0.017 (at 60 wk post carcinogen dose) and 24/24 (100%), 19/20 (95%), 5%, not significant (at 75 wk post carcinogen dose); the “tumour outcome (control, treated, inhibition, significance)” value (Carcinogen: N-ETHYL-N-NITROSOUREA, 759-73-9, Dose [Inhibitor]: 0, 250 MG/KG DIET FOR DURATION OF STUDY BEGINNING POST CARCINOGEN DOSE (STUDY DURATION: 35 WK), Route [Inhibitor]: ORAL, Species: MOUSE, Strain/Sex: PIM/MALE, Target Tissue: Type of Lesion: LYMPHATIC SYSTEM: LYMPHOMA, Dose [Carcinogen]: 50 MG/KG BW ONCE, Promoter: NONE USED) is 21/40 (53%), 15/29 (52%), 2%, not significant.
